Source: PMC7321065, “Discovery of New Schiff Bases Tethered Pyrazole Moiety: Design, Synthesis, Biological Evaluation, and Molecular Docking Study as Dual Targeting DHFR/DNA Gyrase Inhibitors with Immunomodulatory Activity” (Molecules, 2020)
Values after ≈ are worked out from the molar mass of the structure shown. Where two headings read alike, the source gives them in different places.

How the values were obtained:
Candida albicans [1] = experiment: MIC/MFC, paper disk diffusion; assay type: cell-based; details: Candida albicans
Protocol: (§1) Antimicrobial activities of the newly formed Schiff bases (6a–d, 7a–d, 8a–d, and 9a–d) and reference drugs were evaluated against three Gram-positive, three Gram-negative, and two fungi strain at Al-Azhar University, Cairo, Egypt. The inhibition zones (IZ, in mm ± standard deviation) and the minimal inhibitory concentration (MIC) (μg/mL) were determined by the conventional paper disk diffusion method.
(§2) In Vitro Antimicrobial Activities […]
(§3) DMSO was used for dissolving […]
(§4) the tested microorganisms.
(§5) The minimum inhibitory concentration (MIC), the minimum bactericidal concentration (MBC, µg/ml) and […]
(§6) and 9b) were determined by the conventional technique termed paper disk diffusion, by applying paper […]
(§7) Bacteria were grown on nutrient agar medium, while fungi and yeast were grown on Sabouraud agar medium. The purified streptomycin was dissolved in […]
(§8) inoculated with test organism. Growth inhibition was examined after 24 hr. from incubation at 37 °C for bacteria and after 72 hr. incubation at 27 °C for fungi and yeast. Each test was repeated three times. MIC was expressed as the lowest concentration inhibiting test organism’s growth. […]

Fusarium oxysporum [2] = experiment: MIC/MFC, paper disk diffusion; assay type: cell-based; details: Fusarium oxysporum
Protocol: as §1, §2, §3, §4, §5, §6, §7, §8

Candida albicans [3] = experiment: Inhibition zone, agar plate diffusion; assay type: cell-based; details: read-out: Inhibition zone (IZ)
Protocol: as §1
(§9) In Vitro Antimicrobial Activities
(§10) The antimicrobial activities inhibition zone (IZ, mm±standard deviation) of pyrazole Schiff bases ( 6a-d , 7a-d, 8a-d and 9a-d ) was measurement according to the agar plate diffusion method. Briefly, 100 µl of the […]
(§11) […] of each sample (at 0.5 mg/mL) was added to each well (10 mm diameter holes cut in the agar gel). The plates were incubated for 24 h at 37 °C (for bacteria and yeast) and for 72 h at 27 °C (for filamentous fungi), each test was repeated three times. After incubation, the microorganism's growth was observed. […]
(§12) drugs while Amphotericin B was used as standard antifungal drug. The resulting inhibition zone diameters were measured in millimeters and used as criterion for the antimicrobial activity. Solvent controls (DMSO) were included in every experiment as negative controls. DMSO was used for dissolving […]
(§13) the tested microorganisms. […]
(§14) Bacteria were grown on nutrient agar medium, while fungi and yeast were grown on Sabouraud agar medium. […]

Staphylococcus aureus [4] = experiment: Inhibition zone, agar plate diffusion; assay type: cell-based; details: read-out: Inhibition zone (IZ)
Protocol: as §1, §9, §10, §11, §12, §13, §14

Fusarium oxysporum [5] = experiment: Inhibition zone, agar plate diffusion; assay type: cell-based; details: read-out: Inhibition zone (IZ)
Protocol: as §1, §9, §10, §11, §12, §13, §14

Salmonella typhi [6] = experiment: Inhibition zone, agar plate diffusion; assay type: cell-based; details: Salmonella enterica, St, mm ± standard deviation, sample at 0.5 mg/mL, read-out: Inhibition zone (IZ)
Protocol: as §1, §9, §10, §11, §12, §13, §14

[7] = system: S. aureus ATCC 43300 (MRSA); experiment: Inhibition zone against MDRB, agar plate diffusion; assay type: cell-based
Pseudomonas aeruginosa [8] = experiment: MIC/MBC, paper disk diffusion; assay type: cell-based; details: Pseudomonas aeruginosa
Protocol: as §1, §2, §3, §4, §5, §6, §7, §8

Bacillus subtilis [9] = experiment: MIC/MBC, paper disk diffusion; assay type: cell-based
Protocol: as §1, §2, §3, §4, §5, §6, §7, §8

Enterococcus faecalis [10] = experiment: MIC/MBC, paper disk diffusion; assay type: cell-based
Protocol: as §1, §2, §3, §4, §5, §6, §7, §8

Staphylococcus aureus [11] = experiment: MIC/MBC, paper disk diffusion; assay type: cell-based
Protocol: as §1, §2, §3, §4, §5, §6, §7, §8

Escherichia coli [12] = experiment: MIC/MBC, paper disk diffusion; assay type: cell-based; details: Escherichia coli
Protocol: as §1, §2, §3, §4, §5, §6, §7, §8

Salmonella typhi [13] = experiment: MIC/MBC, paper disk diffusion; assay type: cell-based
Protocol: as §1, §2, §3, §4, §5, §6, §7, §8

E. coli ATCC BAA-196 [14] = experiment: MIC/MBC against MDRB, paper disk diffusion; assay type: cell-based; details: Escherichia coli, ATCCBAA196
Source text: (§15) The inhibition zone (IZ, mm±standard deviation) of pyrazole Schiff bases ( 6b, 7b, 7c, 8a, 8d and 9b) was
(§16) measurement according to the agar plate diffusion method against a panel of multidrug-resistant bacteria
(MDRB). […]

S. aureus ATCC 33591 [15] = experiment: MIC/MBC against MDRB, paper disk diffusion; assay type: cell-based; details: Staphylococcus aureus, ATCC33591
Source text: as §15, §16
(MDRB). […]

[16] = system: S. aureus ATCC 43300 (MRSA); experiment: MIC/MBC against MDRB, paper disk diffusion; assay type: cell-based; details: Staphylococcus aureus
Source text: as §15, §16
(MDRB). […]

[17] = system: P. aeruginosa ATCC BAA-2111; experiment: MIC/MBC against MDRB, paper disk diffusion; assay type: cell-based; details: Pseudomonas aeruginosa, ATCCBAA2111
Source text: as §15, §16
(MDRB). […]

S. aureus ATCC 33591 [18] = experiment: Inhibition zone against MDRB, agar plate diffusion; assay type: cell-based
E. coli ATCC BAA-196 [19] = experiment: Inhibition zone against MDRB, agar plate diffusion; assay type: cell-based
[20] = system: mammary gland breast cancer cell line (MCF-7); experiment: Antiproliferative activity, MTT assay; assay type: cell-based, human; details: Homo sapiens, MCF7, 48 h, read-out: IC50 MCF-7
Protocol: (§17) 3-[4, 5-Dimethyl-2-thiazolyl)-2, 5-diphenyl-2 H-tetrazolium bromide (MTT) protocol is based on the cleavage of the tetrazolium salt by mitochondrial dehydrogenases in viable cells. Cells were dispensed in a 96 well sterile microplate (5 x 10^4 cells/well), and incubated at 37 °C with series of different concentrations, in DMSO, of each tested compound or Doxorubicin ® (positive control) for 48 h in a serum free medium prior to the MTT assay. After incubation, media were carefully removed, 40 µL of MTT (2.5 mg/mL) were added to each well and then incubated for an additional 4 h. The purple formazan dye crystals were solubilized by the addition of 200 µL of DMSO. The absorbance was measured at 590 nm using a SpectraMax® Paradigm® Multi-Mode microplate reader. The relative cell viability was expressed as the mean percentage of viable cells compared to the untreated control cells.
(§18) All experiments were conducted in triplicate and repeated in three different days. All the values were represented as mean ± SD. IC 50s were determined by probit analysis using SPSS software program (SPSS

[21] = system: hepatocellular carcinoma cell line (HepG2); experiment: Antiproliferative activity, MTT assay; assay type: cell-based, human
Protocol: as §17, §18

Pseudomonas aeruginosa [22] = experiment: Inhibition zone, agar plate diffusion; assay type: cell-based; details: read-out: Inhibition zone (IZ)
Protocol: as §1, §9, §10, §11, §12, §13

Bacillus subtilis [23] = experiment: Inhibition zone, agar plate diffusion; assay type: cell-based; details: read-out: Inhibition zone (IZ)
Protocol: as §1, §9, §10, §11, §12, §13

Enterococcus faecalis [24] = experiment: Inhibition zone, agar plate diffusion; assay type: cell-based; details: read-out: Inhibition zone (IZ)
Protocol: as §1, §9, §10, §11, §12, §13

Escherichia coli [25] = experiment: Inhibition zone, agar plate diffusion; assay type: cell-based; details: read-out: Inhibition zone (IZ)
Protocol: as §1, §9, §10, §11, §12, §13

[26] = system: P. aeruginosa ATCC BAA-2111; experiment: Inhibition zone against MDRB, agar plate diffusion; assay type: cell-based

COc1ccc(Nc2n[nH]c(N=Cc3c(C)nn(-c4ccccc4)c3Cl)c2C(=O)Nc2ccccc2)cc1 [7b, 5-((5-Chloro-3-methyl-1-phenyl-1H-pyrazol-4-yl)methyleneamino)-3-(p-methoxyphenylamino)-N-phenyl-1H-pyrazole-4-carboxamide]
MFC (Candida albicans [1]): 28.1 µg/mL (≈ 53.4 µM)
MIC (Candida albicans [1]): 15.6 µg/mL (≈ 29.7 µM)
MFC (Fusarium oxysporum [2]): 46.9 µg/mL (≈ 89.1 µM)
MIC (Fusarium oxysporum [2]): 31.2 µg/mL (≈ 59.4 µM)
zone of inhibition at 500 µg/mL (Candida albicans [3]): 21 ± 0.2 mm
zone of inhibition at 500 µg/mL (Staphylococcus aureus [4]): 23 ± 0.55 mm
zone of inhibition at 500 µg/mL (Fusarium oxysporum [5]): 17 ± 0.45 mm
zone of inhibition at 500 µg/mL (Salmonella typhi [6]): 22 ± 0.12 mm
Mean Diameter of Inhibition Zone against MDRB [7]: 18 ± 0.11 mm
MIC (Pseudomonas aeruginosa [8]): 31.2 µg/mL (≈ 59.4 µM)
MBC (Pseudomonas aeruginosa [8]; P. aeruginosa): 59.4 µg/mL (≈ 113 µM)
Fold more potent than Tetracycline (MIC) (Bacillus subtilis [9]; B. subtilis): 5 fold
MIC (Bacillus subtilis [9]; Bacillus subtilis): 5.57 µg/mL (≈ 10.6 µM)
MBC (Bacillus subtilis [9]; Bacillus subtilis, B. subtilis): 10.6 µg/mL (≈ 20.1 µM)
MIC (Enterococcus faecalis [10]): 3.9 µg/mL (≈ 7.41 µM)
MBC (Enterococcus faecalis [10]; E. faecalis): 6.63 µg/mL (≈ 12.6 µM)
Fold more potent than Tetracycline (MIC) (Staphylococcus aureus [11]; S. aureus): 32 fold
MIC (Staphylococcus aureus [11]; Staphylococcus aureus): 1.95 µg/mL (≈ 3.71 µM)
MBC (Staphylococcus aureus [11]; Staphylococcus aureus, S. aureus): 3.7 µg/mL (≈ 7.03 µM)
MIC (Escherichia coli [12]): 7.81 µg/mL (≈ 14.8 µM)
MBC (Escherichia coli [12]; E. coli): 12.5 µg/mL (≈ 23.7 µM)
Fold more potent than Tetracycline (MIC) (Salmonella typhi [13]): 8 fold
Fold more potent than the standard drug (MBC) (Salmonella typhi [13]; S. typhi): ~6.6 fold
MIC (Salmonella typhi [13]; Salmonella enterica, S. typhi): 3.9 µg/mL (≈ 7.41 µM)
MBC (Salmonella typhi [13]; Salmonella enterica, S. typhi, read-out: MBC): 6.63 µg/mL (≈ 12.6 µM)
MBC (E. coli ATCC BAA-196 [14]): 18.5 µg/mL (≈ 35.2 µM)
MIC (E. coli ATCC BAA-196 [14]): 9.25 µg/mL (≈ 17.6 µM)
MBC (S. aureus ATCC 33591 [15]): 16 µg/mL (≈ 30.4 µM)
MIC (S. aureus ATCC 33591 [15]): 8.88 µg/mL (≈ 16.9 µM)
MBC [16]: 15.6 µg/mL (≈ 29.7 µM)
MIC [16]: 7.81 µg/mL (≈ 14.8 µM)
MBC [17]: 15.6 µg/mL (≈ 29.7 µM)
MIC [17]: 7.81 µg/mL (≈ 14.8 µM)
Mean Diameter of Inhibition Zone against MDRB (S. aureus ATCC 33591 [18]): 15 ± 0.41 mm
Mean Diameter of Inhibition Zone against MDRB (E. coli ATCC BAA-196 [19]): 20 ± 0.44 mm
IC50 [20]: 4.81 ± 0.25 µM
Fold against doxorubicin (IC50) ([21]; HepG-2): 0.54 fold
IC50 ([21]; Homo sapiens, HepG2, 48 h, read-out: IC50 HepG-2): 7.18 ± 0.49 µM
zone of inhibition at 500 µg/mL (Pseudomonas aeruginosa [22]): 24 ± 0.78 mm
zone of inhibition at 500 µg/mL (Bacillus subtilis [23]): 28 ± 0.16 mm
zone of inhibition at 500 µg/mL (Enterococcus faecalis [24]): 25 ± 0.3 mm
zone of inhibition at 500 µg/mL (Escherichia coli [25]): 21 ± 0.14 mm
Mean Diameter of Inhibition Zone against MDRB [26]: 21 ± 0.33 mm

CCn1cc(C(=O)O)c(=O)c2cc(F)c(N3CCNCC3)cc21 [Norfloxacin, reference compound]
Mean Diameter of Inhibition Zone against MDRB [7]: 25 ± 0.50 mm
MBC (E. coli ATCC BAA-196 [14]; E. coli ATCC BAA-196, read-out: MBC): 3.53 µg/mL (≈ 11.1 µM)
MIC (E. coli ATCC BAA-196 [14]; E. coli ATCC BAA-196, read-out: MIC): 1.57 µg/mL (≈ 4.92 µM)
MBC (S. aureus ATCC 33591 [15]; S. aureus ATCC 33591, read-out: MBC): 1.56 µg/mL (≈ 4.89 µM)
MIC (S. aureus ATCC 33591 [15]; S. aureus ATCC 33591, read-out: MIC): 0.78 µg/mL (≈ 2.44 µM)
MBC ([16]; S. aureus ATCC 43300, read-out: MBC): 2.81 µg/mL (≈ 8.8 µM)
MIC ([16]; S. aureus ATCC 43300, read-out: MIC): 1.25 µg/mL (≈ 3.91 µM)
MBC ([17]; P. aeruginosa ATCC BAA-2111, read-out: MBC): 4.69 µg/mL (≈ 14.7 µM)
MIC ([17]; P. aeruginosa ATCC BAA-2111, read-out: MIC): 3.13 µg/mL (≈ 9.8 µM)
Mean Diameter of Inhibition Zone against MDRB (S. aureus ATCC 33591 [18]): 26 ± 0.5 mm
Mean Diameter of Inhibition Zone against MDRB (E. coli ATCC BAA-196 [19]): 27 ± 0.98 mm
Mean Diameter of Inhibition Zone against MDRB [26]: 24 ± 0.47 mm
